The term inhibition denotes the relative decrease from the control value, in per cent.

The structures appear in SMILES notation.

Test [1] addresses T1, CMPK2 (Homo sapiens, UniProt Q5EBM0).
T1 sequence (Q5EBM0 22-449): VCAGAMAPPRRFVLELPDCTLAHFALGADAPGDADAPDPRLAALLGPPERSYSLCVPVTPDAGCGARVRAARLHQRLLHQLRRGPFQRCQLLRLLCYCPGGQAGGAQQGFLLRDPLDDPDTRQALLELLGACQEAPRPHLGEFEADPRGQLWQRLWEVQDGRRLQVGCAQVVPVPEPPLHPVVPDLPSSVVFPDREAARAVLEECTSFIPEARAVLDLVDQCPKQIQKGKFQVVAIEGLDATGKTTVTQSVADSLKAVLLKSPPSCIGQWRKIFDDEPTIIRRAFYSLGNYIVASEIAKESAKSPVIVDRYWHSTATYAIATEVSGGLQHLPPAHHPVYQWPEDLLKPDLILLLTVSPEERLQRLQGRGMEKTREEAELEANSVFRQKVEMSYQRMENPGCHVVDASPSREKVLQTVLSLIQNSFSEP
The test can be described thus: CMPK2 kinase activity assay (ADP-GLO). Particulars: ligand concentration 10 μM, luminescence; for inhibition at 10 µM: read-out: CMPK2 inhibition. It counts as biochemical.
Method: The range of concentrations used to investigate the effect of small‐molecule ligands on CMPK2 activity was 0.1–150 μM. Each data point contains three biological replicates.
CMPK2 activity was measured by the ADP‐GLO kinase assay according to the guidelines specified in the manufacturer's instructions. In the activity assay, the amount of ADP formed in the CMPK2 reaction was equal to the ATP consumption and proportional to the increase in luminescence generated in the luciferase reaction, which is the experimental principle shown in Figure 1I.

Test [2] addresses T1, CMPK2. The test can be described thus: Ultrafiltration-affinity mass spectrometry screening (FC, CMPK2 vs BSA). Type of test: binding. Further details: the N‐terminus was truncated by 22 amino acids; 6xHis (C); made in house; host or cells: FreeStyle 293-F cells (pTT5 vector). Particulars: ratio of MS response CMPK2 vs BSA; for FC Negative: negative ion mode; for FC Positive: positive ion mode.
Method: The purified kinase CMPK2 was incubated with the six cocktails for 30 min at 37°C in a suitable buffer solution. In the compound cocktail, each compound concentration was 1 μM, and the concentration of the kinase CMPK2 was set at 5 μM. Each of the above incubation solutions was added to a 0.5 mL 10 kDa ultrafiltration tube (Amicon μltra‐0.5 10K Centrifugal Filter Devices, Millipore), and four experimental replicates were conducted for each CMPK2 and BSA pair. The 10 kDa ultrafiltration tube was centrifuged with the incubation solution at 13 000 × g for 20 min at 4°C. Centrifugation was stopped when the solution volume was approximately 100 μL, and then the mixture was washed five times with cold ammonium acetate (150 mM, pH 7.5). For affinity selection, 100 μL of the mixture was transferred after centrifugation and rinsed into a new eppendorf tube. […] The protein precipitate was discarded and the liquid was concentrated with a N2 stream. The residue was re‐dissolved in 50% methanol before injection. BSA samples were processed in a manner parallel to that of CMPK2 samples.
Sample measurement was detected by using an UHPLC instrument (Shimadzu) combined with a Triple TOF 5600^+ MS (SCIEX). Chromatographic separation was conducted with an Acquity UPLC BEH C18 column (1.7 μm, 2.1 × 100 mm, Waters) at a temperature maintained at 40°C and a flow rate of 0.3 mL/min, with mobile phases of water–0.1% formic acid (A) and acetonitrile (B). The linear gradient elution profile was as follows: 0−2 min, 5% B; 2−12 min, 5−30% B; 12−25 min, 30−90% B; 25−30 min, 90% B; and re‐equilibration for 5 min. Subsequently, the gradient was recovered to the initial conditions at the final 1 min. Whether it was a test sample or a quality control (QC) sample, each injection volume was 5 μL.
Briefly, the chromatographic peaks of each bound ligand were extracted using PeakView with identification criteria of precise mass measurement deviation and retention time tolerance of 5 ppm and 0.1 min, respectively. The MS response of each ligand was represented with the integrated peak area extracted by the corresponding extract ion chromatogram. The effective hits were selected on the basis of fold change (FC) value ≥ 2, p value < .05 and cyclic voltammetry (CV) ≤ 30% and were identified as candidate ligands of CMPK2. By extracting the m/z of individual standards from the acquired MS/MS spectrum, the decimal point of RT was used to distinguish the ambiguous compound peaks in the cocktails.
The experimental samples were injected into a UHPLC‐Q‐TOF‐MS system. First, total ion chromatograms (TIC) reflected the general overview of all samples (Supporting Information Figure S2A). […] Among the groups, each sample with a CV more than 30% was considered an abnormal sample and was not considered in the subsequent statistical analysis. In addition, the p value of each sample between the groups was calculated by MetaboAnalyst 5.0, and the significance of differences was determined. In the ultrafiltration‐affinity mass spectrometry profiling, we calculated FC, which is defined as the ratio of the MS response between the compound detected in the CMPK2 and BSA incubation system (Supporting Information Figure S2C,D). […] To select small‐molecule ligands with strong affinity, we determined the screening criteria to be FC ≥ 2. Affinity MS analysis generated a set of raw data, and the compounds that met the pre‐judgment criteria (FC ≥ 2, p < .05) were selected as compound hits (Supporting Information Figure S2).

With `CC(C)=CCCC(C)(O)[C@H]1CC[C@]2(C)[C@@H]1[C@H](O)C[C@@H]1[C@@]3(C)CC[C@H](O)C(C)(C)[C@@H]3CC[C@]12C` (stereo in doubt) [compound 368, Protopanaxadiol], in test [1], the CMPK2 inhibition result is “more than 50%”. Moreover, in test [2], the “FC Negative” value was 3.70.

Take `O=c1c(O[C@@H]2O[C@H](CO)[C@H](O)[C@H](O)[C@H]2O)c(-c2ccc(O)c(O)c2)oc2cc(O)cc(O)c12` [compound 400, Hyperoside]: in test [1], the inhibition at 10 µM was greater than 50%. Besides, in test [2], the “FC Negative” value turned out to be 6.41 and the “FC Positive” value came out at 4.74.

Turning to `O=c1ccn([C@H]2C[C@H](O)[C@@H](COP(=O)(O)O)O2)c(=O)[nH]1` [dUMP, reference compound], the “FC Positive” value in test [2] worked out at 1.17. The FC value in test [2] (Figure S3A) is on record as 1.9.

Regarding `COc1ccc2ccc(=O)oc2c1` [compound 792, 7-methoxy coumarin], the inhibition at 10 µM in test [1] was greater than 50%. The “FC Positive” value in test [2] is listed as 3.13.

The values are drawn from PMC10587737, “Dracorhodin targeting CMPK2 attenuates inflammation: A novel approach to sepsis therapy” (Clinical and Translational Medicine, 2023).
